According to ChEMBL document CHEMBL5465560, “Selectivity Literature for EUbOPEN Chemogenomic Library” (2024):
One block for each compound: values may come before it.

What was measured:
[1] = target: CDK4/Cyclin D3 (Homo sapiens) (UniProt P11802+P30281); test: (§1) Selectivity interaction (KinomeScan (DiscoverX)) EUB0000595a CDK4; format: protein-complex assay; settings: at 10 µM
[2] = target: Cyclin-dependent kinase 4/cyclin D1 (Homo sapiens) (UniProt P11802+P24385); test: as §1; format: protein-complex assay; settings: at 10 µM
[3] = target: T1, MAP/microtubule affinity-regulating kinase 4 (Homo sapiens) (UniProt Q96L34); test: Selectivity interaction (Kinase panel (Z-LYTE Assay)) EUB0001632a MARK4; settings: at 10 µM
T1 sequence (whole entry): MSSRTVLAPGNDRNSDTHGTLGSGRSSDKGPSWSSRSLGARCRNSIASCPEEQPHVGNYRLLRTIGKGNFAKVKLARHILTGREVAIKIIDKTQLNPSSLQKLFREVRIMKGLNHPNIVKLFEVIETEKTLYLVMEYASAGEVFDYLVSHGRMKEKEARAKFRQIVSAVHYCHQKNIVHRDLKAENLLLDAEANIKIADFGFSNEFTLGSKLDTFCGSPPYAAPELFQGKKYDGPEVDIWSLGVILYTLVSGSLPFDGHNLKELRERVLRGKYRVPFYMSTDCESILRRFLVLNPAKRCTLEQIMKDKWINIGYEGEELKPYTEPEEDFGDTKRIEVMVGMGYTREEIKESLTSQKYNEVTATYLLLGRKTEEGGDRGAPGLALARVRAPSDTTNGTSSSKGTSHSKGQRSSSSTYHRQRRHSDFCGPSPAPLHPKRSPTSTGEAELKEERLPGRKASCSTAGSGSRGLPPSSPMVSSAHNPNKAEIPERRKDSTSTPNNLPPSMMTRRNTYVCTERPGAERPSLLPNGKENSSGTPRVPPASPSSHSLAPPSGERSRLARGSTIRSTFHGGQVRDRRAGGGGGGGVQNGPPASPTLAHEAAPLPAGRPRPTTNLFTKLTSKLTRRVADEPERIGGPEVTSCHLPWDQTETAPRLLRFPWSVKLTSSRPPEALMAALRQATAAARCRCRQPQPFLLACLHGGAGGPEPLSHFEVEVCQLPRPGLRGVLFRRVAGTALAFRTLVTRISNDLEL

[4] = target: T2, 3-phosphoinositide-dependent protein kinase 1 (Homo sapiens) (UniProt O15530); settings: at 10 µM
T2 sequence (whole entry): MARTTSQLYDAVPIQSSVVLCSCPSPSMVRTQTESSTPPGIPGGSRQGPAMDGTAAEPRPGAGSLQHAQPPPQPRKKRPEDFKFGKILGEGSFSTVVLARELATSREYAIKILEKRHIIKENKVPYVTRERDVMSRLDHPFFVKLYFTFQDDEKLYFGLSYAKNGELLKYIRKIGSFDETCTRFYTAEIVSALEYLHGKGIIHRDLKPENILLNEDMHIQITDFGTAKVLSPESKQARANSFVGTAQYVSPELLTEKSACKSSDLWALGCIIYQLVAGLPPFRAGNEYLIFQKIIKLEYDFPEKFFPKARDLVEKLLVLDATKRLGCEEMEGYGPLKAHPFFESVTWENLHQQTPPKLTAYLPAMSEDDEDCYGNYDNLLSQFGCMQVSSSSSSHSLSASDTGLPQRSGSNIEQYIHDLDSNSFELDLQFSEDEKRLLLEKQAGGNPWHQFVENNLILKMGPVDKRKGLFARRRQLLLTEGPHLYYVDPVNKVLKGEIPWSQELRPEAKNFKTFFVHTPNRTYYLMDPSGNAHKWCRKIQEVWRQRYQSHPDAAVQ

[5] = target: Sodium-dependent noradrenaline transporter (Homo sapiens, UniProt P23975); test: Selectivity interaction (Safety Panel 44tm (Eurofins)) EUB0000162b SLC6A2; settings: at 10 µM
[6] = target: 5'-AMP-activated protein kinase catalytic subunit alpha-1 (Homo sapiens, UniProt Q13131); test: Selectivity interaction (Kinase panel (Enzyme activity assay)) EUB0000612a PRKAA1
[7] = target: Serine/threonine-protein kinase SIK1 (Homo sapiens) (UniProt P57059); test: Selectivity interaction (Kinase panel (Carna Biosciences)) EUB0001542aTs SIK1; settings: at 1 µM
[8] = target: Eukaryotic translation initiation factor 2-alpha kinase 1 (Homo sapiens) (UniProt Q9BQI3); test: Selectivity interaction (KinomeScan (DiscoverX)) EUB0001619a EIF2AK1; settings: at 1 µM
[9] = target: Mast/stem cell growth factor receptor Kit (Homo sapiens, UniProt P10721); test: Selectivity interaction (Kinase panel (Invitrogen)) EUB0000639a KIT; settings: at 200 nM
[10] = target: T3, Serine/threonine-protein kinase DCLK2 (Homo sapiens) (UniProt Q8N568); settings: at 10 µM
T3 sequence (whole entry): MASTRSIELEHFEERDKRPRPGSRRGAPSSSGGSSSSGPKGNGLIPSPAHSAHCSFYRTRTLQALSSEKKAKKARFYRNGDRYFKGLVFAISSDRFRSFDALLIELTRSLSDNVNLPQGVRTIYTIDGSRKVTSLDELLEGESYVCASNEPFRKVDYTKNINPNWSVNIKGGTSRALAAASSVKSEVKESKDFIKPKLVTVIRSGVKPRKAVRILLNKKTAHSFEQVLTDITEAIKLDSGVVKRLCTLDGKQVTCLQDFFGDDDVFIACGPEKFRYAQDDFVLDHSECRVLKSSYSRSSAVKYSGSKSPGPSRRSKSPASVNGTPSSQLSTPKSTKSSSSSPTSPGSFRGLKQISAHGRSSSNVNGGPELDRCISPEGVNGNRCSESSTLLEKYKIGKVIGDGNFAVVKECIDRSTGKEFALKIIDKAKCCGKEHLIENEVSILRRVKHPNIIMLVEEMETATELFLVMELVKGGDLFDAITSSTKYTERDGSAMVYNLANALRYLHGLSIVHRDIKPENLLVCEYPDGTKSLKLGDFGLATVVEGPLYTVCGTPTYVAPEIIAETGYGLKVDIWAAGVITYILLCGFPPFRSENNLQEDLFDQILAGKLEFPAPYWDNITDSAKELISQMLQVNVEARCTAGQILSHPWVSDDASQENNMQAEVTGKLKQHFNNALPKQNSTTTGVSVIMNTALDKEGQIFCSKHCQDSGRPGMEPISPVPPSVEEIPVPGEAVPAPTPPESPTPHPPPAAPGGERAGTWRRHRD

Chain of Eukaryotic translation initiation factor 2-alpha kinase 1 (Homo sapiens) (Q9BQI3 whole entry): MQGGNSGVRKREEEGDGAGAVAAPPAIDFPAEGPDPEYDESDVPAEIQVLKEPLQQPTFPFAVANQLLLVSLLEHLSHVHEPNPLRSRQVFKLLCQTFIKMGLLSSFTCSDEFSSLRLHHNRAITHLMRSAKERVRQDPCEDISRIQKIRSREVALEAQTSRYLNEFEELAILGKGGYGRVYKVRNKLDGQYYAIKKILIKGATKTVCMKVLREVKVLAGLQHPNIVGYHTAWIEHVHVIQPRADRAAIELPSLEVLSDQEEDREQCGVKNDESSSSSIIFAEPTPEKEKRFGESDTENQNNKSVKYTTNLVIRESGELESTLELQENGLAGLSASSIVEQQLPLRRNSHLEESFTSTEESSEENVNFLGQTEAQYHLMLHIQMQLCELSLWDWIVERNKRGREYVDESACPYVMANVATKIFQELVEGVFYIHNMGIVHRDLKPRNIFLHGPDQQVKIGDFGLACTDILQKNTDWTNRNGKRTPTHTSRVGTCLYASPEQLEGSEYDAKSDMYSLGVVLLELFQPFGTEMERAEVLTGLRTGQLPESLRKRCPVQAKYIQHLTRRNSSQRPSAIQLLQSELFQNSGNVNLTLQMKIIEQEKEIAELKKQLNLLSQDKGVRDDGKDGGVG
Chain of Sodium-dependent noradrenaline transporter (P23975 whole entry): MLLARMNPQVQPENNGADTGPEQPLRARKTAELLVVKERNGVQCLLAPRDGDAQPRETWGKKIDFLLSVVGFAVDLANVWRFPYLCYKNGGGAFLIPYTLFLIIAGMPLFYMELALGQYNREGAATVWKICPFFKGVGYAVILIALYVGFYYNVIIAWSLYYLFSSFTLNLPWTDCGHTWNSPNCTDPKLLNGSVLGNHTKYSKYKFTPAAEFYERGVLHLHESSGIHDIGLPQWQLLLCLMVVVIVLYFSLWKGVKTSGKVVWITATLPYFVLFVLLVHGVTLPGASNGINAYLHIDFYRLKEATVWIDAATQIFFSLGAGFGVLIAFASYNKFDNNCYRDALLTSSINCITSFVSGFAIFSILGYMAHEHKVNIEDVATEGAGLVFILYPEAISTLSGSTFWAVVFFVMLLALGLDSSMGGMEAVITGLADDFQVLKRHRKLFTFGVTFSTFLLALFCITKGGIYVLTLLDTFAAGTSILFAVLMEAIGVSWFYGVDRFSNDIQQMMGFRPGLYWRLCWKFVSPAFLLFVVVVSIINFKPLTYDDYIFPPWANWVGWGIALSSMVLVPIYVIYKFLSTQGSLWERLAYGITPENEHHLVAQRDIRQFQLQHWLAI
Chain of 5'-AMP-activated protein kinase catalytic subunit alpha-1 (Q13131 whole entry): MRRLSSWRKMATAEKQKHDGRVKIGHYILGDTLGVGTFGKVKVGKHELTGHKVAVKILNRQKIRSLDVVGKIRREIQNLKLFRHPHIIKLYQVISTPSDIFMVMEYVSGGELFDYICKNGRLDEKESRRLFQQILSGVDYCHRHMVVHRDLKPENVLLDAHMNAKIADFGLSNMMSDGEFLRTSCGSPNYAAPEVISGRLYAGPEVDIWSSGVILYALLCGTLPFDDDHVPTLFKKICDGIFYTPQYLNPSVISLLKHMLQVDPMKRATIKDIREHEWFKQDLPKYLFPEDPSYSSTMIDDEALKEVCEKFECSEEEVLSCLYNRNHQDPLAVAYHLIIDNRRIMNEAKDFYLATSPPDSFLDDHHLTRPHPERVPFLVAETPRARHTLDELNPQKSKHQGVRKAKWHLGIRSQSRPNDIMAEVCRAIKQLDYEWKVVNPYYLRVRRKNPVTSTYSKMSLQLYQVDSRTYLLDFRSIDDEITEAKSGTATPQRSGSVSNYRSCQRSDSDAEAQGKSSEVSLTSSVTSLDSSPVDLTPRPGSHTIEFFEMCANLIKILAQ
Chain of Mast/stem cell growth factor receptor Kit (P10721 whole entry): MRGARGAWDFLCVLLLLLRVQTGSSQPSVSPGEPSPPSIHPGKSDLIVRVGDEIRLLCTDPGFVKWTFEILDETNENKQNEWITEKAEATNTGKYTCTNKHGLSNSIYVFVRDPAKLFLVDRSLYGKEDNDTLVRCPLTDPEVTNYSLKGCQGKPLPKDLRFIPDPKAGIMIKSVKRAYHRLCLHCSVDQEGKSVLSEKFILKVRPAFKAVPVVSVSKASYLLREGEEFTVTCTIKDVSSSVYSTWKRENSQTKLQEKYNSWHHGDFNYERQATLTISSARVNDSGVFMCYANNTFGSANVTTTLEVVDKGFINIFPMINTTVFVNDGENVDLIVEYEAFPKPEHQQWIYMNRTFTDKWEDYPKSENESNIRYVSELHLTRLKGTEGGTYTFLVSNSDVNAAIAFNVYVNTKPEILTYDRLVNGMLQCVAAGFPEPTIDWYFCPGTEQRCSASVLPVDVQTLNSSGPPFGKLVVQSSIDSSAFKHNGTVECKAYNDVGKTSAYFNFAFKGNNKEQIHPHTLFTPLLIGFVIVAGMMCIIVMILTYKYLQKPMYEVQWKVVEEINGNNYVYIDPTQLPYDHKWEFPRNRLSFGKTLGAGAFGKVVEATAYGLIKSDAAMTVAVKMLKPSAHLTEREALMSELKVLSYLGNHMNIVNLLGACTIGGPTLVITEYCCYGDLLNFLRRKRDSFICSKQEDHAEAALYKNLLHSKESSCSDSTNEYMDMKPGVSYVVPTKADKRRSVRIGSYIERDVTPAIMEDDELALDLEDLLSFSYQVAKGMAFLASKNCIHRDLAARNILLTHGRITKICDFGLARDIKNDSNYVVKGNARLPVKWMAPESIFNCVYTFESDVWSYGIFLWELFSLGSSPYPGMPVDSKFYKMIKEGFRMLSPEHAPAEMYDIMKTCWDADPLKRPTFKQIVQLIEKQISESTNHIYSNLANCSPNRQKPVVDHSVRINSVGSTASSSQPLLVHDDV
Chain of Serine/threonine-protein kinase SIK1 (Homo sapiens) (P57059 whole entry): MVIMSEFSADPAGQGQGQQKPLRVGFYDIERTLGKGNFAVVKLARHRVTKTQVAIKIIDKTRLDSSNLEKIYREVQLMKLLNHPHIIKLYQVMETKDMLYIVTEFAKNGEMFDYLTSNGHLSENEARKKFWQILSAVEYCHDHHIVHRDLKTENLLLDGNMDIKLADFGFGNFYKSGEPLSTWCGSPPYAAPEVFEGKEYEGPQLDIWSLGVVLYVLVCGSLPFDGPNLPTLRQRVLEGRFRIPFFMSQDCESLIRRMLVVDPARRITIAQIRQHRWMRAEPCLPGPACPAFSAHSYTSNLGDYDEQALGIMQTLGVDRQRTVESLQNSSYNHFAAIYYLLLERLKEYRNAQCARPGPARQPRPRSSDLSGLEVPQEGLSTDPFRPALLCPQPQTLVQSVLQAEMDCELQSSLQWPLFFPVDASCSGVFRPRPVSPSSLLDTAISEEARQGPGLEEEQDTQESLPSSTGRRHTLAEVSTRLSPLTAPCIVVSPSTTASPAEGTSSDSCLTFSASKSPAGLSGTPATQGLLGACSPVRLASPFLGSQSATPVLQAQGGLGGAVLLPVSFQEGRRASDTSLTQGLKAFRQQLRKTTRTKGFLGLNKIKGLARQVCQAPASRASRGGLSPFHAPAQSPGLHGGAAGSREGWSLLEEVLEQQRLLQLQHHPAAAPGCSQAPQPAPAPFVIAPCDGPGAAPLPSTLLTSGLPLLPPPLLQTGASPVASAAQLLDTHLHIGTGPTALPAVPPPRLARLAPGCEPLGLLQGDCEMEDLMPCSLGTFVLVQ

- % of inhibition [7]: 77%
SMILES: Cn1cc(Nc2nccc(N3CC4CCC(C3)N4C(=O)[C@@H]3CC3(F)F)n2)cn1

- % of inhibition [9]: 1.04%
SMILES: CC[C@@H]1[C@H](F)C(=O)N[C@@H]1COc1nccc2cc(C(N)=O)c(OC)cc12 [ZIMLOVISERTIB]

- % of control [10]: 100%
SMILES: CCN(CC)CCCCNc1ncc2cc(-c3cc(OC)cc(OC)c3)c(NC(=O)NC(C)(C)C)nc2n1

More lines, now with the values behind:

SMILES: COCC(=O)NC/C=C/c1ccc2ncnc(Nc3ccc(Oc4ccc(C)nc4)c(C)c3)c2c1 [CP-724714]
- % of control [1]: 100%
- % of control [2]: 100%

SMILES: Cn1cc(-n2cnc3c(NCc4nc5cc(Cl)c(Cl)cc5[nH]4)nc(N4CCOCC4)nc32)cn1
- % of control [3]: 18.7%

SMILES: Cc1cc([C@@H](C)Nc2ccccc2C(=O)O)c2nc(N3CCOCC3)cc(=O)n2c1 [AZD-6482]
- % of control [4]: 100%

SMILES: CN(C)C(=O)Cn1cc(-c2ccc(-c3cncc4ccccc34)cc2)cn1
- % of control [5]: 89%

SMILES: CCc1cccc(CC)c1NC(=O)c1nn(C)c2c1CCc1cnc(Nc3ccc(C(=O)NC4CCN(C)CC4)cc3OC(F)(F)F)nc1-2
- IC50 [6]: > 10 µM

SMILES: N#Cc1cccc(-c2c[nH]c3ncnc(N4CCOCC4)c23)c1
- % of control [8]: 100%
